Source: article PMC12489727, “Malonyl-Caffeoylquinic Acids and Malonyl-Flavonoid-Glucosides from Three Edible Apiaceae Plants Anthriscus Cerefolium, Anthriscus Sylvestris, and Chaerophyllum Bulbosum” (ACS Omega, 2025)

Experiments:
[1] = DPPH radical scavenging assay; format: biochemical; settings: 6 min incubation at room temperature, absorbance at 515 nm, triplicate
Protocol: A DPPH radical scavenging assay was conducted following a previously published protocol, as detailed in the Supporting Information.
Antioxidant Activity Tests. A DPPH radical scavenging assay was used according to a previously
published protocol.13 Serial dilutions of compounds (prepared in methanol) were incubated with
DPPH solution for 6 min at room temperature. The reduction in absorbance was measured with a
HITACHI U-2000 spectrophotometer (Hitachi Ltd., Tokyo, Japan) at 515 nm. […]

Vero E6 cells = experiment: In vitro cytostatic effect, Alamar Blue viability assay, Vero E6; format: cell-based, African green monkey; settings: then 72 h culture
Protocol: (§1) The cytostatic effects of the compounds were evaluated in vitro on various cancer cells and noncancerous Vero E6 cells using the Alamar Blue viability assay, as detailed in the Supporting Information.
(§2) The cytostatic effects of MDiCQAs and FMGls were evaluated in vitro using the Alamar Blue viability assay on five human cancer cell lines: colorectal carcinoma (HT-29), glioma (U87), hepatocellular carcinoma (HepG2), promyelocytic leukemia (HL-60), and melanoma (A2058). They were also tested on nontumorous Vero E6 cells, kidney epithelial cells from an African green monkey, to evaluate the selectivity of the compounds. […] The two effective MDiCQAs (4 and 9) share a common structural feature: their central quinic acid core is substituted with caffeoyl moieties at the C-1 and C-5 positions and a malonyl group at the C-3 position. In contrast, the ineffective compound 7 has caffeoyl moieties at the same positions, but its malonyl group is attached to the C-4 position instead of C-3. Similarly, in the other ineffective MDiCQAs (5 and 6), the malonyl unit is also located at the C-4 position, while their caffeoyl groups are positioned at C-3 and C-5. […] The results also indicate a high degree of isomer-specificity in the cytostatic activity of MDiCQAs. […] In particular, the inhibition of Vero E6 cells by the MDiCQAs (4 and 9) can be considered as a strong effect, and that of the FMGl (3) as a weaker one, with IC50 values below 10 μM and around 40 μM, respectively. […]
(§3) Determination of the In Vitro Cytostatic Effects of Compounds. In vitro, the cytostatic effect of the compounds was determined on various human tumor- and non-human primate Vero E6 cells using Alamar Blue end-point viability assay. Cells were cultured in DMEM medium supplemented with 10% FBS, 2 mM L-glutamine, 50 IU/mL penicillin/50 µg/mL streptomycin antibiotic cocktail, 1 mM sodium pyruvate and 1% non-essential amino acid mixture at 37 °C in a humidified atmosphere with 5% CO2. At the confluent state, cells were plated into 96-well tissue culture plates with the initial cell number of 5.0×10^3 cells/well. Cells were treated with the compounds after 24 hours in a serum-free medium containing 1.0% (v/v) DMSO at 0.08 -100 µM concentration. Control cells were treated with serum-free medium or DMSO (c=1.0%, v/v ) containing serum-free medium. After overnight incubation, cells were washed twice with a serum-free medium; then, they were cultured for another 72 hours in the complete culturing medium at 37 °C. Following that, 22.5 µL Alamar Blue (resazurin sodium salt, Merck) solution (0.15 mg/mL in PBS) was added to each well and after 4 hrs of incubation, the fluorescence was measured at λEx = 530/30 and λEM = 610/10 nm using a Synergy H4 multi-mode microplate reader (BioTek). All measurements were performed in quadruplets, and the mean IC50 values and ± SEM were represented.

melanoma (A2058) = experiment: In vitro cytostatic effect, Alamar Blue viability assay, A2058; format: cell-based, human; settings: A2058 cells, overnight treatment 0.08-100 µM, then 72 h culture
Protocol: as §1, §2, §3

glioma (U87) = experiment: In vitro cytostatic effect, Alamar Blue viability assay, U87; format: cell-based, human; settings: U87 cells, overnight treatment 0.08-100 µM, then 72 h culture
Protocol: as §1, §2, §3

[2] = system: promyelocytic leukemia (HL-60); experiment: In vitro cytostatic effect, Alamar Blue viability assay, HL-60; format: cell-based, human; settings: HL-60 cells, overnight treatment 0.08-100 µM, then 72 h culture
Protocol: as §1, §2
as §3, with “All measurements were performed in quadruplets, and the mean IC50 values and ± SEM were represented.” left out

[3] = system: hepatocellular carcinoma (HepG2); experiment: In vitro cytostatic effect, Alamar Blue viability assay, HepG2; format: cell-based, human; settings: HepG2 cells, overnight treatment 0.08-100 µM, then 72 h culture
Protocol: as §1, §2, §3

[4] = system: colorectal carcinoma (HT-29); experiment: In vitro cytostatic effect, Alamar Blue viability assay, HT-29; format: cell-based, human; settings: HT-29 cells, overnight treatment 0.08-100 µM, then 72 h culture
Protocol: as §1, §2, §3

[5] = system: human leukemia cells (MOLM-13); parameters: method as in earlier work; settings: MOLM-13 cells; previously reported; ref 40 (Slimestad et al., 2022); cited from earlier work
[6] = system: noncancerous rat kidney epithelial cells (NRK); parameters: method as in earlier work; settings: previously reported, ref 40 (Slimestad et al., 2022); cited from earlier work
[7] = overnight treatment 0.08-100 µM
[8] = Chlorocebus sabaeus, Vero C1008, 72 h, overnight treatment 0.08-100 µM

Row | IC50 [1] | IC50 (melanoma (A2058); Homo sapiens) | IC50 (glioma (U87); Homo sapiens, U-87 MG) | IC50 ([2]; Homo sapiens) | IC50 ([3]; Homo sapiens) | IC50 ([4]; Homo sapiens) | Compound | IC50 (Vero E6 cells; [7]) | IC50 (Vero E6 cells; [8]) | other results
1 | 233.9 ± 0.9 µM |  |  |  |  |  | O=C(O)CC(=O)OC[C@H]1O[C@@H](Oc2c(-c3ccc(O)cc3)oc3cc(O)cc(O)c3c2=O)[C@H](O)[C@@H](O)[C@@H]1O [Compound 3, kaempferol-3-O-(6″-O-malonyl)-β-D-glucoside] | 39.8 ± 2 µM |  | IC50 (melanoma (A2058)): 21 ± 3 µM; IC50 (glioma (U87)): 86.3 ± 9.4 µM; IC50 [2]: 51.4 ± 6.7 µM; IC50 [3]: 27.5 ± 3.4 µM; IC50 [4]: > 100 µM
2 | 13.6 ± 0.4 µM | 11.9 ± 2.2 µM | 48.5 ± 4.6 µM | > 100 µM | > 100 µM | 47.9 ± 2.3 µM | O=C(O)CC(=O)OC1CC(OC(=O)C=Cc2ccc(O)c(O)c2)(C(=O)O)CC(OC(=O)C=Cc2ccc(O)c(O)c2)C1OC(=O)CC(=O)O (stereo not drawn) [Compound 9, 1,5-Dicaffeoyl-3,4-dimalonylquinic Acid] | 9.5 ± 3.1 µM | < 10 µM | 
3 | 18.4 ± 0.1 µM |  |  |  |  |  | Cc1c(C)c2c(c(C)c1O)CCC(C)(C(=O)O)O2 (stereo not drawn) [Trolox, reference compound] |  |  | 
4 | 7.8 ± 0.4 µM |  |  |  |  |  | O=C(O)CC(=O)OC[C@H]1O[C@@H](Oc2cc(O)c3c(=O)cc(-c4ccc(O)c(O)c4)oc3c2)[C@H](O)[C@@H](O)[C@@H]1O [Compound 2, luteolin-7-O-(6″-O-malonyl)-β-D-glucoside] |  |  | 
5 | 22.5 ± 0.6 µM |  |  |  |  |  | O=C(O)CC(=O)OC[C@H]1O[C@@H](Oc2c(-c3ccc(O)c(O)c3)oc3cc(O)cc(O)c3c2=O)[C@H](O)[C@@H](O)[C@@H]1O [Compound 1, quercetin-3-O-(6″-O-malonyl)-β-D-glucoside] |  |  | 
6 | 14.8 ± 0.6 µM | > 100 µM | > 100 µM |  | > 100 µM | > 100 µM | O=C(O)CC(=O)OC[C@H]1O[C@@H](Oc2cc(O)c3c(=O)cc(-c4ccc(O)c(O)c4)oc3c2)[C@H](OC(=O)CC(=O)O)[C@@H](O)[C@@H]1O [Compound 8, Luteolin-7-O-(2″,6″-di-O-malonyl)-β-D-glucoside] |  | > 100 µM | 
7 |  | 13.5 ± 1.5 µM | > 100 µM | 29.7 ± 4.6 µM | 25.6 ± 2.3 µM | > 100 µM | O=C(O)CC(=O)OC1CC(OC(=O)C=Cc2ccc(O)c(O)c2)(C(=O)O)CC(OC(=O)C=Cc2ccc(O)c(O)c2)C1O (stereo not drawn) [Compound 4, 1,5-Dicaffeoyl-3-malonylquinic Acid] | 9.9 ± 1.4 µM | < 10 µM | 
8 |  |  |  |  |  |  | 1,3-dicaffeoyl-5-malonyl-δ-quinide |  |  | in vitro cytotoxicity [5]: nonselective in vitro cytotoxicity; in vitro cytotoxicity [6]: nonselective in vitro cytotoxicity

Row | Compound | IC50 [1] | IC50 (melanoma (A2058); Homo sapiens) | IC50 (glioma (U87); Homo sapiens, U-87 MG) | IC50 ([2]; Homo sapiens) | IC50 ([3]; Homo sapiens) | IC50 ([4]; Homo sapiens) | IC50 (Vero E6 cells; [7]) | IC50 (Vero E6 cells; [8]) | other results
9 | COc1cccc2c1C(=O)c1c(O)c3c(c(O)c1C2=O)C[C@@](O)(C(C)=O)C[C@@H]3O[C@H]1C[C@H](N)[C@H](O)[C@H](C)O1 [Daunomycin, reference compound] |  | 0.2 ± 0.01 µM | 0.6 ± 0.05 µM | 0.16 ± 0.03 µM | 0.54 ± 0.15 µM | 0.9 ± 0.1 µM |  |  | IC50 (Vero E6 cells; Chlorocebus sabaeus, Vero C1008, overnight treatment 0.08-100 µM): 1.7 ± 0.5 µM
